Where two headings read alike, the source gives them in different places.

Drawing on US8476309B2, “Benzofuran cannabinoid compounds and related methods of use” (The University of Tennessee Research Foundation, priority 2009, dated 2013), this text covers EC50 for 11 molecules.

The assay concerns glioblastoma brain cancer cell line LN-229. The assay is described as follows: Cytotoxicity assay (CCK8 viability). It is filed as cell-based. Conditions: Homo sapiens, read-out: EC50 LN-229, 24 hrs, 1% FBS. The procedure:
Cytoxocity assay: Cells are seeded on a 96 well polystyrene plate in full serum media at a density of 75,000 cells per milliliter, 100 μL per well. Plates are incubated at 37° C. and 5% CO2 for 24 hours to allow cell attachment. Drug solutions are prepared in DMSO at 100× concentration and mixed 1:100 in 1% FBS media to yield the desired concentration. Drug-media mixtures are vortexed immediately prior to administration to cells. […] 10 μL of Cell Counting Kit 8 (CCK8, Dojindo# CK04-11) is added to each well to colormetrically assess viability. After 2-4 hours of incubation with the CCK8 dye, absorbance is read at 450 nm by a BioTek Synergy 2 plate reader.
The cytotoxicity of selected compounds against the glioblastoma brain cancer cell line LN-229 is depicted in Table 2.

Where [1] appears, read: LN-229 cells, 24 hrs, 1% FBS media, CCK8 readout.

Regarding `CC(C)(c1cccc(F)c1)c1cc(O)c2c(-c3ccccc3)coc2c1` [Compound 75, 6-(2-(3-Fluorophenyl)propan-2-yl)-3-phenylbenzofuran-4-ol], the concentration for a half-maximal effect (EC50) (commonly the concentration at which the effect is half-maximal) under setting [1] is 6.99 µM.

Take `CCCCCc1cc(O)c2c(-c3ccccc3)coc2c1` [Compound 52, 6-Pentyl-3-phenylbenzofuran-4-ol]: under setting [1], the EC50 was determined as 10.7 µM.

For the molecule `CCCCCc1cc(O)c2c(-c3cc(OC)cc(OC)c3)coc2c1` [Compound 55, 3-(3,5-Dimethoxyphenyl)-6-pentylbenzofuran-4-ol], the half-maximal effective concentration (EC50) (LN-229, 24 h) came to 10.3 µM.

On to `CCCCCCC(C)(C)c1cc(O)c2c(-c3ccccc3)coc2c1` [Compound 63, 6-(2-Methyloctan-2-yl)-3-phenylbenzofuran-4-ol], for which the EC50 under setting [1] is 10.3 µM.

`CCCCCc1cc(O)c2cc(-c3cc(Cl)cc(Cl)c3)oc2c1` [Compound 59, 2-(3,5-Dichlorophenyl)-6-pentylbenzofuran-4-ol]: the EC50 under setting [1] was 6.12 µM.

Regarding `CCCCCCC(C)(C)c1cc(O)c2c(-c3cc(Cl)cc(Cl)c3)coc2c1` [Compound 62, 3-(3,5-Dichlorophenyl)-6-(2-methyloctan-2-yl)benzofuran-4-ol], the concentration for a half-maximal effect (EC50) under setting [1] stood at 11.4 µM.

As for `CCCCCc1cc(O)c2cc(-c3cccs3)oc2c1` [Compound 50, 6-Pentyl-2-thiophen-2-yl-benzofuran-4-ol], under setting [1], the EC50 was 10.1 µM.

As for `CCCCCc1cc(O)c2c(-c3cc(Cl)cc(Cl)c3)coc2c1` [Compound 58, 3-(3,5-Dichlorophenyl)-6-pentylbenzofuran-4-ol], for the setting “LN-229, 24 h”, the concentration giving a half-maximal response (EC50) was found to be 13.6 µM.

On to `CCCCCc1cc(O)c2cc(-c3cc(OC)cc(OC)c3)oc2c1` [Compound 56, 2-(3,5-Dimethoxyphenyl)-6-pentylbenzofuran-4-ol], for which the EC50 under setting [1] is 10.3 µM.

In the case of `CCCCCc1cc(O)c2c(-c3cccc(C)c3)coc2c1` [Compound 51, 6-Pentyl-3-m-tolylbenzofuran-4-ol], where the note is “LN-229, 24 h”, the EC50 was found to be 16.4 µM.

On to `CCCCCc1cc(O)c2c(-c3cccs3)coc2c1` [Compound 49, 6-Pentyl-3-thiophen-2-yl-benzofuran-4-ol], for which the EC50 under setting [1] was 68.5 µM.
